# From patent publication US20080039515A1, “Arylpyrazoles And Methods Of Using Same For Control Of Insect Pests That Bore Into Trees” (The Texas A&M University System, priority 2004, published 2008)
# Like-named read-outs stand apart in the source and are kept apart here.
# Test system: Ips engravers beetles
# Type: in vivo
# Procedure: Study Sites: Two 20-year-old, recently thinned loblolly pine plantations were selected in Texas. Trees in one plantation were injected for use in a bolt study (Trial 1). Trees in ½ acre section of the second plantation were injected as part of a single-tree protection study (Trial 2). A staging area also was set up in the second plantation where bolts from the first plantation were exposed to bark beetles and wood borers.
# Population Monitoring: A clear panel of acetate (10 cm wide by 25 cm long) was attached to the center of each bolt after deployment of bolts or 2 m high on standing trees after deployment of pheromone baits to monitor arrival of bark beetles. The top surface of each panel was coated entirely with Stikem Special® trapping compound (Michel and Pelton, Emeryville, Calif.). The traps were left in place for two weeks.
# After 1 (May 24), 3 (July 19) and 5 (September) months post-injection, 5 trees of each treatment were felled and two 1.5 m long bolts were removed from the 3 m and 8 m heights of the bole. Because southern pine beetle (SPB) populations were extremely low in east Texas during the study year, Ips engravers were used as alternative bark beetles for this study. The bolts were transported to a 20-year-old loblolly plantation that was recently thinned and contained fresh slash material. Each bolt was placed about 1 m apart on discarded, dry pine bolts to maximize surface area available for colonization as well as to discourage predation by ground and litter-inhabiting organisms. To facilitate timely bark beetle colonization, packets of bark beetle pheromones (racemic ipsdienol +lanerione combination, ipsenol or cis-verbenol; Phero Tech, Inc., Delta, BC, Canada) were attached separately to three 1 m stakes evenly spaced in the study area. Racemic ipsdienol and cis-verbenol were used with the second series of bolts deployed in July. The packets were removed after 2 weeks when signs of attacks (boring dust) were observed on most test bolts, signaling that naturally-produced pheromones were present.
# Treatment Evaluation: Trial 1. The first and second series of bolts were retrieved 2.5 and 3 weeks, respectively, after deployment, after observing many cerambycid attacks on most of the bolts. In the laboratory, two 10×50 cm strips (total=1000 cm^2) of bark were removed from each bolt. Several measurements were made relating to construction of nuptial chambers and egg galleries and development of brood: • 1. Number of unsuccessful attacks—penetration to phloem, but no egg galleries. • 2. Number of successful attacks—construction of nuptial chamber and at least one egg gallery extending from it. • 3. Number and lengths of egg galleries with brood galleries radiating from them. • 4. Number and lengths of egg galleries without brood galleries. • 5. Cerambycid activity, estimated by overlaying a 100 cm^2 grid over a portion of each bark strip and counting the number of squares overlapping area where cerambycids had fed.
# Treatment efficacy was determined by comparing Ips beetle attacks and egg gallery length and cerambycid feeding on treated and untreated bolts. The data were transformed by log10(x+1) to satisfy criteria for normality and homoscedasticity (Zar 1984) and analyzed by GLM and the Fishers Protected LSD test using the Statview statistical program.
# [1] = 1 month post-injection (May), bolt height 3 m
# [2] = 1 month post-injection (May), bolt height 8 m
# [3] = 3 months post-injection (July), bolt height 3 m
# [4] = 3 months post-injection (July), bolt height 8 m
# [5] = 3 months post-injection, bolt height 3 m
# [6] = 3 months post-injection, bolt height 8 m
# [7] = 5 months post-injection (Sept.), bolt height 3 m
# [8] = 5 months post-injection (Sept.), bolt height 8 m
smiles,measurement,setting,value
"N#Cc1nn(-c2c(Cl)cc(C(F)(F)F)cc2Cl)c(N)c1[S+]([O-])C(F)(F)F (stereo not drawn) [Fip, 5-amino-3-cyano-1-(2,6-dichloro-4-trifluoromethylphenyl)-4-trifluoromethylsulfinylpyrazole]",Length of Egg Galleries Total,[1],135.0
same,Length of Egg Galleries With Brood,[1],70.6 cm
same,Length of Egg Galleries With Brood % of Total,[1],52.3%
same,Length of Egg Galleries Without Brood,[1],64.4 cm
same,Length of Egg Galleries Without Brood % of Total,[1],47.7%
same,Mean # of Ips caught/trap,[1],4.0
same,Number of Egg Galleries Total,[1],33.6
same,Number of Egg Galleries With Brood % of Total,[1],29.8%
same,Number of Egg Galleries With Brood No.,[1],10.0
same,Number of Egg Galleries Without Brood % of Total,[1],70.2%
same,Number of Egg Galleries Without Brood No.,[1],23.6
same,Nuptial Chambers Total,[1],21.0
same,Nuptial Chambers With Egg Galleries % of Total,[1],51.4%
same,Nuptial Chambers With Egg Galleries No.,[1],10.8
same,Nuptial Chambers Without Egg Galleries No.,[1],10.2
same,Length of Egg Galleries Total,[2],332.8
same,Length of Egg Galleries With Brood,[2],183.2 cm
same,Length of Egg Galleries With Brood % of Total,[2],55.0%
same,Length of Egg Galleries Without Brood,[2],149.6 cm
same,Length of Egg Galleries Without Brood % of Total,[2],45.0%
same,Mean # of Ips caught/trap,[2],3.6
same,Number of Egg Galleries Total,[2],73.0
same,Number of Egg Galleries With Brood % of Total,[2],36.7%
same,Number of Egg Galleries With Brood No.,[2],26.8
same,Number of Egg Galleries Without Brood % of Total,[2],63.3%
same,Number of Egg Galleries Without Brood No.,[2],46.2
same,Nuptial Chambers Total,[2],25.8
same,Nuptial Chambers With Egg Galleries % of Total,[2],89.9%
same,Nuptial Chambers With Egg Galleries No.,[2],23.2
same,Nuptial Chambers Without Egg Galleries % of Total,[2],10.1%
same,Nuptial Chambers Without Egg Galleries No.,[2],2.6
same,Mean # of Ips caught/trap,[3],4.8
same,Nuptial Chambers Total,[3],12.6
same,Nuptial Chambers With Egg Galleries % of Total,[3],22.2%
same,Nuptial Chambers With Egg Galleries No.,[3],2.8
same,Nuptial Chambers Without Egg Galleries No.,[3],9.8
same,Mean # of Ips caught/trap,[4],4.6
same,Nuptial Chambers Total,[4],21.0
same,Nuptial Chambers With Egg Galleries % of Total,[4],8.6%
same,Nuptial Chambers With Egg Galleries No.,[4],1.8
same,Nuptial Chambers Without Egg Galleries No.,[4],19.2
same,Length of Egg Galleries Total,[5],19.4
same,Length of Egg Galleries With Brood,[5],0.0 cm
same,Length of Egg Galleries With Brood % of Total,[5],0.0%
same,Length of Egg Galleries Without Brood,[5],19.4 cm
same,Length of Egg Galleries Without Brood % of Total,[5],100.0%
same,Number of Egg Galleries Total,[5],5.6
same,Number of Egg Galleries With Brood % of Total,[5],0.0%
same,Number of Egg Galleries With Brood No.,[5],0.0
same,Number of Egg Galleries Without Brood % of Total,[5],100.0%
same,Number of Egg Galleries Without Brood No.,[5],5.6
same,Length of Egg Galleries Total,[6],9.2
same,Length of Egg Galleries With Brood,[6],1.0 cm
same,Length of Egg Galleries With Brood % of Total,[6],10.9%
same,Length of Egg Galleries Without Brood,[6],8.2 cm
same,Length of Egg Galleries Without Brood % of Total,[6],89.1%
same,Number of Egg Galleries Total,[6],3.0
same,Number of Egg Galleries With Brood % of Total,[6],6.7%
same,Number of Egg Galleries With Brood No.,[6],0.2
same,Number of Egg Galleries Without Brood % of Total,[6],93.3%
same,Number of Egg Galleries Without Brood No.,[6],2.8
same,Length of Egg Galleries Total,[7],5.8
same,Length of Egg Galleries With Brood,[7],3.4 cm
same,Length of Egg Galleries With Brood % of Total,[7],58.6%
same,Length of Egg Galleries Without Brood,[7],2.4 cm
same,Length of Egg Galleries Without Brood % of Total,[7],41.4%
same,Mean # of Ips caught/trap,[7],1.2
same,Number of Egg Galleries Total,[7],1.0
same,Number of Egg Galleries With Brood % of Total,[7],40.0%
same,Number of Egg Galleries With Brood No.,[7],0.4
same,Number of Egg Galleries Without Brood % of Total,[7],60.0%
same,Number of Egg Galleries Without Brood No.,[7],0.6
same,Nuptial Chambers Total,[7],8.0
same,Nuptial Chambers With Egg Galleries % of Total,[7],7.5%
same,Nuptial Chambers With Egg Galleries No.,[7],0.6
same,Nuptial Chambers Without Egg Galleries % of Total,[7],92.5%
same,Nuptial Chambers Without Egg Galleries No.,[7],7.4
same,Length of Egg Galleries Total,[8],15.2
same,Length of Egg Galleries With Brood,[8],13.0 cm
same,Length of Egg Galleries With Brood % of Total,[8],85.5%
same,Length of Egg Galleries Without Brood,[8],2.2 cm
same,Length of Egg Galleries Without Brood % of Total,[8],14.5%
same,Mean # of Ips caught/trap,[8],0.8
same,Number of Egg Galleries Total,[8],2.0
same,Number of Egg Galleries With Brood % of Total,[8],60.0%
same,Number of Egg Galleries With Brood No.,[8],1.2
same,Number of Egg Galleries Without Brood % of Total,[8],40.0%
same,Number of Egg Galleries Without Brood No.,[8],0.8
same,Nuptial Chambers Total,[8],6.6
same,Nuptial Chambers With Egg Galleries % of Total,[8],18.2%
same,Nuptial Chambers With Egg Galleries No.,[8],1.2
same,Nuptial Chambers Without Egg Galleries % of Total,[8],81.8%
same,Nuptial Chambers Without Egg Galleries No.,[8],5.4
